Results taken from ChEMBL document CHEMBL5154702, “Synthesis and biological evaluation of aminobenzamides containing purine moiety as class I histone deacetylases inhibitors” (Bioorg Med Chem, 2022).

Key:
Histone deacetylase = format: cell-based, Homo sapiens; details: hela
MDA-MB-231 [1] = experiment: Potency index, ratio of SAHA IC50 to test compound IC50 for antiproliferative activity against human MDA-MB-231 cells; format: functional
HepG2 = experiment: cells; format: functional, cell-based; details: Homo sapiens, HepG2, 48 h
Histone deacetylase 4 = Histone deacetylase 4 (Homo sapiens, UniProt P56524); experiment: Inhibition of recombinant human N-terminal GST-fused/C-terminal His-tagged HDAC4 (627 to 1084 residues) expressed in baculovirus infected Sf9 insect cells using fluorogenic HDAC class 2a substrate measured after 30 mins by fluorimetry
Chain of Histone deacetylase 4 (P56524 whole entry, the tested form may be a part): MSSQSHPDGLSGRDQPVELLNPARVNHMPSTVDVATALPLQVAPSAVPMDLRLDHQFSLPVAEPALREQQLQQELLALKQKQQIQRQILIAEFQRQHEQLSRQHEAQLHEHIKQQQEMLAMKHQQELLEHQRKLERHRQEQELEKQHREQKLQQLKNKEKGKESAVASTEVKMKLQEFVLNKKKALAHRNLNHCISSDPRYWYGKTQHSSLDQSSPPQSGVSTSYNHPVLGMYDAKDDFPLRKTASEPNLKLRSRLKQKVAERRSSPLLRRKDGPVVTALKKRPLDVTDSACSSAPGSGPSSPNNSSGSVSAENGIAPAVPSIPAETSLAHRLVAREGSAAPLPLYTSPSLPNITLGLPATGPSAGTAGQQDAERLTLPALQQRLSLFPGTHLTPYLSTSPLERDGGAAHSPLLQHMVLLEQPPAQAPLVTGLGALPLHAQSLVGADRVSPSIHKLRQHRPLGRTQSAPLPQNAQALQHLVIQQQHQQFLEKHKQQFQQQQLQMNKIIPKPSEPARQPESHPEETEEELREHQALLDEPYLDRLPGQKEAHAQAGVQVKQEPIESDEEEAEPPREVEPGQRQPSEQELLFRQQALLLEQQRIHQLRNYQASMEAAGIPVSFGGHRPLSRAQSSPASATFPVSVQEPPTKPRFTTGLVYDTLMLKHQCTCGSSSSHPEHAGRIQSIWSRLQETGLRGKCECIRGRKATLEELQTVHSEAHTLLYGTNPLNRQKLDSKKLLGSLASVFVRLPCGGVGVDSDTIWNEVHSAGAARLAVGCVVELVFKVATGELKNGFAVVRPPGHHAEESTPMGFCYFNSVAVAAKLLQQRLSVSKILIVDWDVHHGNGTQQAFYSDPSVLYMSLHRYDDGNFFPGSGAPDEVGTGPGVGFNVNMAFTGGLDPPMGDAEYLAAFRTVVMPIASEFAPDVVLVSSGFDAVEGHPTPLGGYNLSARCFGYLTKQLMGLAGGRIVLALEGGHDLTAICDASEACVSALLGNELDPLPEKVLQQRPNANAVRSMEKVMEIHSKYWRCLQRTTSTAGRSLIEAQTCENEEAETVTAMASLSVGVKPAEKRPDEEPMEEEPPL

Histone deacetylase 1 = Histone deacetylase 1 (Homo sapiens, UniProt Q13547); experiment: Inhibition of recombinant human full-length C-terminal Flag-His6-tagged HDAC1 (1 to 482 residues) expressed in Sf9 insect cells using fluorogenic HDAC substrate measured after 30 mins by fluorimetry
Chain of Histone deacetylase 1 (Q13547 whole entry, the tested form may be a part): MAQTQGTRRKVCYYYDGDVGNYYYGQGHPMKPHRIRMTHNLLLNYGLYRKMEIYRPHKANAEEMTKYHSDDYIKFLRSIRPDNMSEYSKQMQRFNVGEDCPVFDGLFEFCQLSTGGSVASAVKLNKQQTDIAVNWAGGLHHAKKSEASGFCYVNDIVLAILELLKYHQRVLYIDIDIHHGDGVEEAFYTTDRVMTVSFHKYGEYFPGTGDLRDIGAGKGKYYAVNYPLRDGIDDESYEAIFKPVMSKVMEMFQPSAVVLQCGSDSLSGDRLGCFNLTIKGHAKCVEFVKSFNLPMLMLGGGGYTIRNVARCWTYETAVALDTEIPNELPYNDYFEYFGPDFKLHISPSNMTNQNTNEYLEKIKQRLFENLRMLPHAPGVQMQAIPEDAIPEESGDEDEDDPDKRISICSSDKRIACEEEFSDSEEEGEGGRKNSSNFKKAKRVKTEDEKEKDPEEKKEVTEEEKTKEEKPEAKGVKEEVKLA

K562 = experiment: cells; format: functional, cell-based; details: Homo sapiens, K562, 48 h
HCT-116 = experiment: Antiproliferative activity against human HCT-116 cells measured after 48 hrs by MTT assay; format: functional, cell-based; details: HCT-116, 48 h
A549 = experiment: cells; format: functional, cell-based; details: Homo sapiens, A549, 48 h
MDA-MB-231 [2] = experiment: Potency index, ratio of MS-275 IC50 to test compound IC50 for antiproliferative activity against human MDA-MB-231 cells; format: functional
[3] = target: Histone deacetylase 3/Nuclear receptor corepressor 2 (HDAC3/NCoR2) (Homo sapiens, UniProt O15379); experiment: biochemical; set-up: species or system Sf9
Chain of Histone deacetylase 3/Nuclear receptor corepressor 2 (HDAC3/NCoR2) (O15379 whole entry, the tested form may be a part): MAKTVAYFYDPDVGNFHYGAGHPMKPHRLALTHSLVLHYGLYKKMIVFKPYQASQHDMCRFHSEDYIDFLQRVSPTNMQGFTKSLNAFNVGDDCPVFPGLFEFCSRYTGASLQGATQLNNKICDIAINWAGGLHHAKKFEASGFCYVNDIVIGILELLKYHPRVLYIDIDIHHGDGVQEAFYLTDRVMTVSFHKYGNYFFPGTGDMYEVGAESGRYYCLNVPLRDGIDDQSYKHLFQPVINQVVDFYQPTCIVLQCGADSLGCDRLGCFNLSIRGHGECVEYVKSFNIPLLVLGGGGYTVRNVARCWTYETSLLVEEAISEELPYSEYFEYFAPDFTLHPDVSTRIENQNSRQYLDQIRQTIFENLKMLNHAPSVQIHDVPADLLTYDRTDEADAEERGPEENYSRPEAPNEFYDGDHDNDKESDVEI
Chain of Histone deacetylase 3/Nuclear receptor corepressor 2 (HDAC3/NCoR2) (Q9Y618 whole entry, further chain, the tested form may be a part): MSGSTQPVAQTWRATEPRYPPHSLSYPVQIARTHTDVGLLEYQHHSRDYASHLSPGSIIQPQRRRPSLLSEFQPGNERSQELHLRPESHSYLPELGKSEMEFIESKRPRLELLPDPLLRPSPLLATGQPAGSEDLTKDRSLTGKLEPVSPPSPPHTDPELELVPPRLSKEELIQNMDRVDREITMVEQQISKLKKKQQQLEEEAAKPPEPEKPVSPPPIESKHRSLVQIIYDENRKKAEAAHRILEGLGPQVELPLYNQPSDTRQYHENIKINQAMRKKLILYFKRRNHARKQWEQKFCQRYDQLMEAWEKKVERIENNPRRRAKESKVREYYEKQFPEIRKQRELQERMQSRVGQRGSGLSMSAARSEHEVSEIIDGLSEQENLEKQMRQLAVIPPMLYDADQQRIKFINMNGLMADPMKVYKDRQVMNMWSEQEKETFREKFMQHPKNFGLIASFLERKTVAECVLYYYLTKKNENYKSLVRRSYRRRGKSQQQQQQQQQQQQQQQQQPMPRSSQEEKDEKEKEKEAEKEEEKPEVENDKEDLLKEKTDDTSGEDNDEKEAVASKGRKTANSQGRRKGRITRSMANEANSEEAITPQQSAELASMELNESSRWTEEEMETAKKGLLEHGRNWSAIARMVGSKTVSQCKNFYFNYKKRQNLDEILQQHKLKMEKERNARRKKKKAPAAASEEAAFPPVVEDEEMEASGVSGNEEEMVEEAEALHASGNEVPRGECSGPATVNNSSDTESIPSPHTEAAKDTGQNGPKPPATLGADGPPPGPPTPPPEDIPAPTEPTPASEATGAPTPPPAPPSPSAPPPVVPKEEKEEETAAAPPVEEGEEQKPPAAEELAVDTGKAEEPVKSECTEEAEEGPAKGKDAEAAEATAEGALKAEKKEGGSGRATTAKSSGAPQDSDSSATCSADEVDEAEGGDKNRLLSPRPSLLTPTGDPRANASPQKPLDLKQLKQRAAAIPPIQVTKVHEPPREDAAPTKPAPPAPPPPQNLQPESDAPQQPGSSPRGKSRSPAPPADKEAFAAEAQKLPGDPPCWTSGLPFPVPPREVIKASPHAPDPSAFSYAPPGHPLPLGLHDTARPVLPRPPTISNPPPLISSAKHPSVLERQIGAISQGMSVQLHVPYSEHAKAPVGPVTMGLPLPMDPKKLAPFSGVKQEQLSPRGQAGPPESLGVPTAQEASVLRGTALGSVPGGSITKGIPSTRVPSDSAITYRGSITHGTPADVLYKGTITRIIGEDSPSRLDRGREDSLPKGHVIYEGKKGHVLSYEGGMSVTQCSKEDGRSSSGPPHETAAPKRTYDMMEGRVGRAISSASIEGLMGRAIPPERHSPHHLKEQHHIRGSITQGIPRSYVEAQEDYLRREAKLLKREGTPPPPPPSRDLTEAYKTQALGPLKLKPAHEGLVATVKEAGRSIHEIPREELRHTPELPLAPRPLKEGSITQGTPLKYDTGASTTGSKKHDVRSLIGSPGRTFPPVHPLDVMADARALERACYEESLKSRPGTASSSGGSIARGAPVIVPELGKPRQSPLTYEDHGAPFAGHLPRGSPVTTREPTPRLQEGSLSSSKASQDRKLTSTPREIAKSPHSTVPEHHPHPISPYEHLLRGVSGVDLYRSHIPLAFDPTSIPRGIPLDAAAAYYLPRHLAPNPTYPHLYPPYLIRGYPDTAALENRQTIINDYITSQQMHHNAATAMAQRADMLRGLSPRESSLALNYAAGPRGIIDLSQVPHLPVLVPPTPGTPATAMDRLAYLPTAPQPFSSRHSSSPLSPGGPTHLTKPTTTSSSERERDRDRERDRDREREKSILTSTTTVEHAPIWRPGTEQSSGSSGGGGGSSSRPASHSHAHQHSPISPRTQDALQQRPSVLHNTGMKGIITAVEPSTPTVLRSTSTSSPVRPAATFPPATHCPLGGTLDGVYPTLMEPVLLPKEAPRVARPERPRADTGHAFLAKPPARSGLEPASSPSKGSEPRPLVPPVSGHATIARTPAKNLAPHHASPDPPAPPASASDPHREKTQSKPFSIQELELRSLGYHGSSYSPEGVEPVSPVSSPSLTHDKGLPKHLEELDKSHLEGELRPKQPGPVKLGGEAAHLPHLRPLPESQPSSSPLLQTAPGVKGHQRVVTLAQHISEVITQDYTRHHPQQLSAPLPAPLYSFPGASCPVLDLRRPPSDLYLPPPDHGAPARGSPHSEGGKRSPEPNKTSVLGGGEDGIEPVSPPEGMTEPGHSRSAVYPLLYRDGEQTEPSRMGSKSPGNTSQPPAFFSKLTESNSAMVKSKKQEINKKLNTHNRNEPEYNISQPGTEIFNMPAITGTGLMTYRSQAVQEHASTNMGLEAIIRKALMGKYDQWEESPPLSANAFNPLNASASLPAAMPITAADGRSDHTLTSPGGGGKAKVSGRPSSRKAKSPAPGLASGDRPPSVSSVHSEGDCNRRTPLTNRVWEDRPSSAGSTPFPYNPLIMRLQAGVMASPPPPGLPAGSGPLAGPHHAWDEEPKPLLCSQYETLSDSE

[4] = target: T1, Protein deacetylase HDAC6 (Homo sapiens, UniProt Q9UBN7); experiment: Inhibition of recombinant human N-terminal GST-tagged HDAC6 (1 to 1215 residues) expressed in Sf9 insect cells using fluorogenic HDAC substrate 3 measured after 30 mins by fluorimetry
T1 sequence (Q9UBN7 whole entry): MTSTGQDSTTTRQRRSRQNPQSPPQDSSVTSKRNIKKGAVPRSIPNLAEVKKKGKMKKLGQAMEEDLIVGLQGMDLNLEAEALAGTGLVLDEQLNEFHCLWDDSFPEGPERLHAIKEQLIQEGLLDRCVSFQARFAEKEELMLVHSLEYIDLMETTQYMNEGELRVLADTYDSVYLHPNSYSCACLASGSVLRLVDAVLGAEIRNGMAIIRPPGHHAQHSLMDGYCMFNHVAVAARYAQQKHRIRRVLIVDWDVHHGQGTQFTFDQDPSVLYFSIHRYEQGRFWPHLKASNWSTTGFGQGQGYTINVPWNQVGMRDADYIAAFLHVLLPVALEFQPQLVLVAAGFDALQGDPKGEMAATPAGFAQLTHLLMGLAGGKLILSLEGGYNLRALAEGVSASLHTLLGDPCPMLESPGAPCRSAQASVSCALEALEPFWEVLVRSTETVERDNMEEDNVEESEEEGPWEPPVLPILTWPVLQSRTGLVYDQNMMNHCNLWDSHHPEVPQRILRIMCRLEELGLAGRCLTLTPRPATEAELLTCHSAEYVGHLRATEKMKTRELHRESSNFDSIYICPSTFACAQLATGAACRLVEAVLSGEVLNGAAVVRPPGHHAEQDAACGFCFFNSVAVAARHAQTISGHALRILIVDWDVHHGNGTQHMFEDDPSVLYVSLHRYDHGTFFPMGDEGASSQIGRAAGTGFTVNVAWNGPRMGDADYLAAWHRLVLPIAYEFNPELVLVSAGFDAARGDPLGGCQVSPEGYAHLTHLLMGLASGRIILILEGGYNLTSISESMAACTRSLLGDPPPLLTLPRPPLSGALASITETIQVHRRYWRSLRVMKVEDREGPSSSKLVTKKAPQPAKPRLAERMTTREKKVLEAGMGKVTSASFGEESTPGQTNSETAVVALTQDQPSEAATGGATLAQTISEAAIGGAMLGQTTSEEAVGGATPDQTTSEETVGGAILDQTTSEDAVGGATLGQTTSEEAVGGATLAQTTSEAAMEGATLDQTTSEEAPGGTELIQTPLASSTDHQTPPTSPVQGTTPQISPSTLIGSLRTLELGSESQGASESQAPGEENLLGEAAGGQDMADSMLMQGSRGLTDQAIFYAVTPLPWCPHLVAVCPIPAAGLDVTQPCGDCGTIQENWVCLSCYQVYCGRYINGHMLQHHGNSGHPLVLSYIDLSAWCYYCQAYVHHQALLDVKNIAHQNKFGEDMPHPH

Histone deacetylase 8 = target: T2, Histone deacetylase 8 (Homo sapiens, UniProt Q9BY41); experiment: Inhibition of human full-length C-terminal His-tagged HDAC8 expressed in baculovirus infected Sf9 insect cell using fluorogenic HDAC class 2a substrate measured after 30 mins by fluorimetry
T2 sequence (Q9BY41 whole entry): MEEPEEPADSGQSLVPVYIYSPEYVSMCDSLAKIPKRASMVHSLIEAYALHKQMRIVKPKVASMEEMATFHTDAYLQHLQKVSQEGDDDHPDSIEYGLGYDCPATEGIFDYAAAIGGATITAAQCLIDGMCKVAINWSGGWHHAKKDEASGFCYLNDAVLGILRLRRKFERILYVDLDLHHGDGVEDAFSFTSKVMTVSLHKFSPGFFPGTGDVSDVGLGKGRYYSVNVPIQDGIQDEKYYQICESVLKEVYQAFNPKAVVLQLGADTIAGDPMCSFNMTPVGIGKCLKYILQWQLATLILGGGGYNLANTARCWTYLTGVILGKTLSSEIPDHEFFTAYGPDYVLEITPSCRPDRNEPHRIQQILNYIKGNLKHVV

MDA-MB-231 [5] = experiment: Antiproliferative activity against human MDA-MB-231 cells measured after 48 hrs by MTT assay; format: functional, cell-based; details: MDA-MB-231, 48 h
SGC-7901 = experiment: Antiproliferative activity against human SGC-7901 cells measured after 48 hrs by MTT assay; format: functional, cell-based; details: SGC-7901, 48 h
in vitro = details: dog, liver microsomes

Row | Compound | IC50 (Histone deacetylase) [nM] | IC50 (HCT-116) [nM] | IC50 (A549) [nM] | IC50 (MDA-MB-231 [5]) [nM] | IC50 (SGC-7901) [nM] | also measured
1 | CCCCNc1nc(Cl)nc2c1ncn2Cc1ccc(C(=O)Nc2ccc(C)cc2N)cc1 | 1010 | – | – | – | – | –
2 | CCNc1nc(Cl)nc2c1ncn2Cc1ccc(C(=O)Nc2ccc(C)cc2N)cc1 | 5570 | – | – | – | – | –
3 | CNc1nc(Cl)nc2c1ncn2Cc1ccc(C(=O)Nc2ccc(C)cc2N)cc1 | 1980 | – | – | – | – | –
4 | CCCCCNc1nc(Cl)nc2c1ncn2Cc1ccc(C(=O)Nc2ccc(C)cc2N)cc1 | 2030 | – | – | – | – | –
5 | CCCCCNc1nc(Cl)nc2c1ncn2Cc1ccc(C(=O)Nc2ccc(Br)cc2N)cc1 | 18680 | – | – | – | – | –
6 | CCNc1nc(Cl)nc2c1ncn2Cc1ccc(C(=O)Nc2ccc(Br)cc2N)cc1 | 10330 | – | – | – | – | –
7 | CCN(CC)c1nc(Cl)nc2c1ncn2Cc1ccc(C(=O)Nc2ccc(F)cc2N)cc1 | 4240 | – | – | – | – | –
8 | CCCNc1nc(Cl)nc2c1ncn2Cc1ccc(C(=O)Nc2ccccc2N)cc1 | 574 | 5500 | 800 | 50 | 1990 | Ratio IC50 (MDA-MB-231 [1]): 4; IC50 (HepG2): 120 nM; IC50 (Histone deacetylase 4): > 100000 nM; IC50 (Histone deacetylase 1): 309 nM; IC50 (K562): 5430 nM; Ratio IC50 (MDA-MB-231 [2]): 4; IC50 [3]: 1360 nM; IC50 [4]: 43700 nM; IC50 (Histone deacetylase 8): 1880 nM
9 | CNc1nc(Cl)nc2c1ncn2CCCC(=O)NCc1ccc(C(=O)Nc2ccccc2N)cc1 | 5020 | 87100 | 97000 | 15500 | 27000 | –
10 | CCCCCNc1nc(Cl)nc2c1ncn2Cc1ccc(C(=O)Nc2ccc(F)cc2N)cc1 | 2860 | – | – | – | – | –
11 | CNc1nc(Cl)nc2c1ncn2Cc1ccc(C(=O)Nc2ccc(F)cc2N)cc1 | 1730 | – | – | – | – | –
12 | Nc1cc(Br)ccc1NC(=O)c1ccc(Cn2cnc3c(Cl)nc(Cl)nc32)cc1 | 9100 | – | – | – | – | –
13 | CCCCNc1nc(Cl)nc2c1ncn2Cc1ccc(C(=O)Nc2ccc(F)cc2N)cc1 | 1280 | – | – | – | – | –
14 | CCCCNc1nc(Cl)nc2c1ncn2CCCC(=O)NCc1ccc(C(=O)Nc2ccccc2N)cc1 | 950 | 11200 | 165000 | 5640 | 64100 | –
15 | Nc1ccccc1NC(=O)c1ccc(CNC(=O)OCc2cccnc2)cc1 [ENTINOSTAT] | – | 2480 | 1480 | – | 980 | IC50 (HepG2): 1760 nM; IC50 (K562): 1190 nM
16 | CCN(CC)c1nc(Cl)nc2c1ncn2Cc1ccc(C(=O)Nc2ccc(Br)cc2N)cc1 | 3110 | – | – | – | – | –
17 | CCCCCNc1nc(Cl)nc2c1ncn2CCCC(=O)NCc1ccc(C(=O)Nc2ccccc2N)cc1 | 3430 | 14400 | 177000 | 9680 | 19600 | –

Row | Compound | IC50 (Histone deacetylase) [nM] | IC50 (HCT-116) [nM] | IC50 (A549) [nM] | IC50 (MDA-MB-231 [5]) [nM] | IC50 (SGC-7901) [nM] | also measured
18 | CCN(CC)c1nc(Cl)nc2c1ncn2Cc1ccc(C(=O)Nc2ccc(C)cc2N)cc1 | 4330 | – | – | – | – | –
19 | CNc1nc(Cl)nc2c1ncn2Cc1ccc(C(=O)Nc2ccc(Br)cc2N)cc1 | 2160 | – | – | – | – | –
20 | CCCCNc1nc(Cl)nc2c1ncn2Cc1ccc(C(=O)Nc2ccc(Br)cc2N)cc1 | 2040 | – | – | – | – | –
21 | Cc1ccc(Nc2nc(Cl)nc3c2ncn3CCCCCCCC(=O)NO)cc1 | 15.3 | – | – | – | – | –
22 | CCN(CC)c1nc(Cl)nc2c1ncn2CCCC(=O)NCc1ccc(C(=O)Nc2ccccc2N)cc1 | 3910 | 20600 | 392000 | 11100 | 59900 | –
23 | Cc1ccc(NC(=O)c2ccc(Cn3cnc4c(Cl)nc(Cl)nc43)cc2)c(N)c1 | 25040 | – | – | – | – | –
24 | CCCNc1nc(Cl)nc2c1ncn2Cc1ccc(C(=O)Nc2ccc(Br)cc2N)cc1 | 9260 | – | – | – | – | –
25 | CCNc1nc(Cl)nc2c1ncn2Cc1ccc(C(=O)Nc2ccccc2N)cc1 | 1640 | 1530 | 860 | 60 | 990 | Ratio IC50 (MDA-MB-231 [1]): 4; IC50 (HepG2): 160 nM; IC50 (Histone deacetylase 4): > 100000 nM; IC50 (Histone deacetylase 1): 93.5 nM; IC50 (K562): 2890 nM; Ratio IC50 (MDA-MB-231 [2]): 4; IC50 [3]: 1070 nM; IC50 [4]: 31700 nM; IC50 (Histone deacetylase 8): 2370 nM
26 | CCCNc1nc(Cl)nc2c1ncn2Cc1ccc(C(=O)Nc2ccc(F)cc2N)cc1 | 4410 | – | – | – | – | –
27 | CCCNc1nc(Cl)nc2c1ncn2CCCC(=O)NCc1ccc(C(=O)Nc2ccccc2N)cc1 | 1260 | 21500 | 514000 | 28400 | 21100 | –
28 | CCCNc1nc(Cl)nc2c1ncn2Cc1ccc(C(=O)Nc2ccc(C)cc2N)cc1 | 3130 | – | – | – | – | –
29 | CCNc1nc(Cl)nc2c1ncn2Cc1ccc(C(=O)Nc2ccc(F)cc2N)cc1 | 5770 | – | – | – | – | –
30 | Nc1cc(F)ccc1NC(=O)c1ccc(Cn2cnc3c(Cl)nc(Cl)nc32)cc1 | 2640 | – | – | – | – | –
31 | CCNc1nc(Cl)nc2c1ncn2CCCC(=O)NCc1ccc(C(=O)Nc2ccccc2N)cc1 | 2310 | 90800 | 149000 | 17500 | 56800 | –
32 | CNc1nc(Cl)nc2c1ncn2Cc1ccc(C(=O)Nc2ccccc2N)cc1 | 1480 | 1670 | 860 | 240 | 5160 | Ratio IC50 (MDA-MB-231 [1]): 4; IC50 (HepG2): 2290 nM; IC50 (Histone deacetylase 4): > 100000 nM; IC50 (Histone deacetylase 1): 77.4 nM; IC50 (K562): 23 nM; Ratio IC50 (MDA-MB-231 [2]): 4; IC50 [3]: 1770 nM; IC50 [4]: 21800 nM; IC50 (Histone deacetylase 8): 1020 nM
33 | O=C(CCCCCCC(=O)Nc1ccccc1)NO [VORINOSTAT] | – | 1550 | – | 1540 | 2120 | half-life (in vitro): 30 min
